biological target: T1, RORγ (Homo sapiens, UniProt P51449); assay: RORγ GAL4 reporter gene assay; conditions: mean pIC50, inhibition of RORγ (GAL4-RORγ-LBD) in 293FT cells, luciferase readout, overnight incubation
T1 sequence (P51449 269-508 limits assumed): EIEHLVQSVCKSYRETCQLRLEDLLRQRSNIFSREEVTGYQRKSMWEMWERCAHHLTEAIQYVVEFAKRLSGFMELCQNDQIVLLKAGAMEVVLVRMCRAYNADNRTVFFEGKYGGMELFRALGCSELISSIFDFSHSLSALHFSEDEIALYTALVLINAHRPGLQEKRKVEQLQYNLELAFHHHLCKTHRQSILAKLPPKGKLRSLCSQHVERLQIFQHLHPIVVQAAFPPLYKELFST
Text: The RORγ ligand-binding domain (LBD) was fused to the yeast GAL4 DNA binding domain (DBD) and placed under the control of the human cytomegalovirus (CMV) immediate early promoter, using expression vector pFN26A (Promega) and standard recombinant DNA cloning methods.
To monitor the inhibitory effect of compounds on RORγ, a transcriptional reporter construct was used. The pGL4.35 vector (Promega) contains nine copies of the GAL4 Upstream Activator Sequence (UAS). This sequence drives the transcription of the luciferase reporter gene luc2P in response to binding of a fusion protein containing the GAL4 DNA binding domain, as for example expressed by the GAL4-RORγ-LBD and GAL4-VP16 expression vectors described above.
The day after transfection, cells were plated into 96 well plates, test compound was added and the plates were incubated overnight. Subsequently, the firefly luciferase activity was quantified using luciferase detection reagent and luminescence readout.
1500 μL of this reagent mixture was added to 5 μg of GAL4 fusion protein expression vector and 5 μg of the transcriptional reporter construct, and incubated at RT for 20 minutes.
Subsequently, the cells were washed with Phosphate Buffered Saline (PBS) (Lonza), after which the PBS was removed. To dissociate the cells, 1 ml of TrypLE Express (Invitrogen) was added to the flask, followed by incubation at RT until the cells visually started to detach. Cells were collected in 5 mL of assay medium (DMEM culture medium (Lonza), 10% dialyzed FBS (Invitrogen) and Pen/Strep (Lonza)) to achieve a single cell suspension. 10×10^6 cells were spun down and re-suspended in 10 mL of assay medium. Subsequently, the cell suspension was added to the transfection mix tube, and then transferred as a whole to a T75 flask (Greiner), followed by overnight (16-24 hours) incubation at 37° C. and 5% CO2.
For compound screening, the cells were harvested (as described above) and counted. […] 80 μL of cell suspension (60,000 cells) was plated per well into a white, flat bottom, tissue culture treated, 96 well screening plates (Greiner).
Test compounds were diluted, starting from a 10 mM dimethylsulfoxide (DMSO) stock solution, to serial dilutions in DMSO at 500× the final test concentration. Subsequently, these solutions were diluted to 5× the final test concentration in two 10-fold-dilution steps in assay medium. The final DMSO concentration of the 5× test compound solution was 1%. 20 μL of the 5× test compound solution was added to each test well of the 96 well plate previously plated with 80 μl cell suspension, resulting in the final test concentration with 0.2% DMSO.
The plates were incubated overnight (16-24 hours) at 37° C. and 5% CO2.
For the luciferase readout, the luciferase reagent (Britelite Plus, Perkin Elmer) was brought to RT. […] The luciferase luminescence signal was measured using a Wallac Victor Microplate Reader (Perkin Elmer).
The half maximum inhibitory concentration (IC50) values for the test compounds were calculated from the luciferase signal using GraphPad Prism software (GraphPad Software).

Row | SMILES | IC50
1 | CCCCOC(c1ccc(NC(=O)Cc2ccc(S(=O)(=O)CC3CC3)cc2)cc1)(C(F)(F)F)C(F)(F)F [Example 52, N-(4-(2-butoxy-1,1,1,3,3,3-hexafluoropropan-2-yl)phenyl)-2-(4-((cyclopropylmethyl)sulfonyl)phenyl)acetamide] | ≤ 100 nM
2 | CCS(=O)(=O)c1ccc(CC(=O)Nc2ccc(C(OCC(F)(F)F)(C(F)(F)F)C(F)(F)F)cc2)cc1 [Example 112, 2-(4-(ethylsulfonyl)phenyl)-N-(4-(1,1,1,3,3,3-hexafluoro-2-(2,2,2-trifluoroethoxy)propan-2-yl)phenyl)acetamide] | ≤ 1000 nM
3 | Cc1cc(NC(=O)Cc2ccc(S(=O)(=O)NC3CC3)cc2)ccc1C(O)(C(F)(F)F)C(F)(F)F [Example 32, 2-(4-(N-cyclopropylsulfamoyl)phenyl)-N-(4-(1,1,1,3,3,3-hexafluoro-2-hydroxypropan-2-yl)-3-methylphenyl)acetamide] | ≤ 100 nM
4 | O=C(Cc1ccc(S(=O)(=O)CC2CC2)cc1)Nc1ccc(C(O)(C2CC2)C2CC2)cc1 [Example 106, 2-(4-((cyclopropylmethyl)sulfonyl)phenyl)-N-(4-(dicyclopropyl(hydroxy)methyl)phenyl)acetamide] | ≤ 100 nM
5 | O=C(Cc1ccc(S(=O)(=O)CC2CC2)cc1)Nc1ccc(C(OCC(F)(F)F)(C(F)(F)F)C(F)(F)F)cc1 [Example 113, 2-(4-((cyclopropylmethyl)sulfonyl)phenyl)-N-(4-(1,1,1,3,3,3-hexafluoro-2-(2,2,2-trifluoroethoxy)propan-2-yl)phenyl)acetamide] | ≤ 100 nM
6 | CCCS(=O)(=O)c1ccc(CC(=O)Nc2ccc(C(O)(C(F)(F)F)C(F)(F)F)cc2)cc1 [Example 4, N-(4-(1,1,1,3,3,3-hexafluoro-2-hydroxypropan-2-yl)phenyl)-2-(4-(propylsulfonyl)phenyl)acetamide] | ≤ 1000 nM
7 | O=C(Cc1ccc(S(=O)(=O)CC2CC2)cc1)Nc1ccc(C(O)(C(F)(F)F)C(F)(F)F)nc1 [Example 110, 2-(4-((cyclopropylmethyl)sulfonyl)phenyl)-N-(6-(1,1,1,3,3,3-hexafluoro-2-hydroxypropan-2-yl)pyridin-3-yl)acetamide] | ≤ 1000 nM
8 | CC(C)OC(c1ccc(NC(=O)Cc2ccc(S(=O)(=O)CC3CC3)cc2)cc1)(C(F)(F)F)C(F)(F)F [Example 51, 2-(4-((cyclopropylmethyl)sulfonyl)phenyl)-N-(4-(1,1,1,3,3,3-hexafluoro-2-isopropoxypropan-2-yl)phenyl)acetamide] | ≤ 100 nM
9 | O=C(Cc1ccc(S(=O)(=O)CC2CC2)cc1)Nc1ccc(C(O)(C(F)(F)F)C(F)(F)F)c(F)c1 [Example 45, 2-(4-((cyclopropylmethyl)sulfonyl)phenyl)-N-(3-fluoro-4-(1,1,1,3,3,3-hexafluoro-2-hydroxypropan-2-yl)phenyl)acetamide] | ≤ 10 nM

The next lines start with the values.

Row | IC50 | SMILES
10 | ≤ 1000 nM | O=C(Cc1ccc(S(=O)(=O)CC2CC2)cc1)Nc1ccc(C(O)C(F)(F)F)cc1 (stereo not shown) [Example 70, 2-(4-((cyclopropylmethyl)sulfonyl)phenyl)-N-(4-(2,2,2-trifluoro-1-hydroxyethyl)phenyl)acetamide]
11 | ≤ 100 nM | COC(c1ccc(NC(=O)Cc2ccc(S(=O)(=O)CC3CC3)cc2)cc1)(C(F)(F)F)C(F)(F)F [Example 54, 2-(4-((cyclopropylmethyl)sulfonyl)phenyl)-N-(4-(1,1,1,3,3,3-hexafluoro-2-methoxypropan-2-yl)phenyl)acetamide]
12 | ≤ 10 nM | CCCCC(O)(c1ccc(NC(=O)Cc2ccc(S(=O)(=O)CC3CC3)cc2)cc1)C(F)(F)F (stereo not shown) [Example 64, 2-(4-((cyclopropylmethyl)sulfonyl)phenyl)-N-(4-(1,1,1-trifluoro-2-hydroxyhexan-2-yl)phenyl)acetamide]
13 | ≤ 1000 nM | CCCC(O)(c1ccc(NC(=O)Cc2ccc(S(=O)(=O)CC)cc2)cc1)C(F)(F)F (stereo not shown) [Example 63, 2-(4-(ethylsulfonyl)phenyl)-N-(4-(1,1,1-trifluoro-2-hydroxypentan-2-yl)phenyl)acetamide]

— patent publication US9738600B2, “ROR gamma (RORγ) modulators” (LEAD PHARMA CEL MODELS IP B.V., priority 2013, dated 2017)
